US6835742B2, “Synergistic effect of amlodipine and atorvastatin on cholesterol crystal formation inhibition and aortic endothelial cell nitric oxide release” (priority 2000, dated 2004)

Columns and labels:
coronary artery disease = settings: cited from earlier work
[1] = Small angle x-ray diffraction of cholesterol-enriched reconstituted membranes (cholesterol domain formation); type: physicochemical; settings: for d-space of surrounding sterol-poor membrane region: 5° C., 74% relative humidity
[2] = tested on: rabbit aorta endothelial cell; assay: NO release from a single rabbit aorta endothelial cell (porphyrinic sensor); type: cell-based; settings: after injection of atorvastatin; 37° C.
Description: NO release measurements. All measurements presented were recorded in vitro. NO release was measured directly from a single endothelial cell in the rabbit aorta. Measurements were done in Hank's balance solution at 37° C. […] The sensor operated with a three-electrode system [sensor working electrode, platinum wire (0.1 mm) counter electrode, and saturated calomel electrode (SCE—reference electrode)]. The three electrodes were connected to a potentiostat/galvanostat PAR273. Data were acquired with the use of an IBM computer with custom software. […] SCE. The release of NO was initiated by the injection of potential agonists of endothelial NO synthase (eNOS) using a temtoinjector placed in the controlled distance from the endothelial cell. Two different agonists were tested: amlodipine and atorvastatin. The different concentrations of these two compounds applied simultaneously were also tested.

stable and advanced CAD = settings: compared to angioplasty with usual medical care; cited from earlier work
[3] = 1.1:1 cholesterol to phospholipid mole ratio, 5° C. (FIG. 5)
[4] = 1.2:1 cholesterol to phospholipid mole ratio, 5° C. (FIG. 4)
[5] = 1.2:1 cholesterol to phospholipid mole ratio

Q: Which “progression of carotid atherosclerosis” value (coronary artery disease; B-mode ultrasonographic assessments) does the source give for CCOC(=O)C1=C(COCCN)NC(C)=C(C(=O)OC)C1c1ccccc1Cl (centres unmarked) [AML, Amlodipine besylate] here?
A: significant slowing

Q: What about the “reduction in documented angina” value (coronary artery disease; compared to placebo) of the same molecule?
A: 33%

Q: And the “reduction in the need for revascularization” value (coronary artery disease; compared to placebo)?
A: 42%

Q: And the “effect on cholesterol domain formation” value [1, 3]?
A: no effect on domain formation

Q: And the “effect on cholesterol domain formation” value [1, 4]?
A: did not interfere with domain formation

Q: What about the “d-space of surrounding sterol-poor membrane region” value (“d-space” for short) [1, 5] of the same molecule?
A: 57.8 Å

Q: Which “maximum NO concentration released” value [2] does the source give for CC(C)c1c(C(=O)Nc2ccccc2)c(-c2ccccc2)c(-c2ccc(F)cc2)n1CC[C@@H](O)C[C@@H](O)CC(=O)[O-].CC(C)c1c(C(=O)Nc2ccccc2)c(-c2ccccc2)c(-c2ccc(F)cc2)n1CC[C@@H](O)C[C@@H](O)CC(=O)[O-].[Ca+2] [AT, atorvastatin calcium] here?
A: 20 ± 5 nmol/L

Q: What about the “effect on cholesterol domain formation” value [1, 3] of the same molecule?
A: no effect on domain formation

Q: And the “d-space” value ([1]; 1.1:1 cholesterol to phospholipid mole ratio)?
A: 55.8 Å

Q: What about the “effect on cholesterol domain formation” value [1, 4] of the same molecule?
A: did not interfere with domain formation

Q: And the “d-space” value [1, 5]?
A: 56.8 Å

Q: And the “reduction of overall incidence of cardiovascular events” value (stable and advanced CAD)?
A: 36%

Q: What about the “time to a first ischemic event” value (stable and advanced CAD) of the same molecule?
A: significantly delayed

Q: With COc1ccc(CCN(C)CCCC(C#N)(c2ccc(OC)c(OC)c2)C(C)C)cc1OC (centres unmarked) [verapamil] as the molecule, how does the “width of cholesterol monohydrate crystalline domains” value ([1]; samples containing verapamil, unaffected by temperature (93% relative humidity) or relative humidity (20° C.)) read?
A: 34.0 Å
